Where two headings read alike, the source gives them in different places.
How the values were obtained:
[1] = biological target: endogenous NaV-channel current in MDA-MB-231 cells (Homo sapiens, UniProt Q14524); assay: whole-cell patch-clamp of endogenous NaV-channel current in MDA-MB-231 cells; type: cell-based
MDA-MB-231 cells = assay: wound-healing assay, MDA-MB-231; type: cell-based, human; details: for gap closure (cell migration) in wound-healing assay: 100 nM, 4 h, 2% FBS, MDA-MB-231
human NaV1.5 (hNaV1.5) [2] = biological target: T1, human NaV1.5 (hNaV1.5) (Homo sapiens, UniProt Q14524); details: for remaining peak inward current / effect on hNaV1.5 current: 1 µM extracellular, 5 min, -30 mV; for IC50: read-out: IC50 of hNaV1.5 current inhibition (Hill fit, constrained), current after 5 min, Hill coefficient constrained to 1 and remaining current to zero
[3] = biological target: T2, human BKCa channel (KCa1.1, KCNMA1) (Homo sapiens, UniProt Q12791); assay: BKCa currents in inside-out patches (HEK293T); type: biochemical; details: 1 µM to intracellular side, 1 µM free Ca2+, 80 mV
T2 construct: expressed in transfected cells; host or cells: HEK293T
From the text: The coding sequence of human NaV1.5 (hNaV1.5, SCN5A, Acc. no. M77235) was inserted into pRC/CMV vector plasmids and expressed in HEK293T cells as described previously. The following NaV constructs were used in a similar manner: mNaV1.5 (mouse, AJ271477.1), hNaV1.2 (NM001040143), hNaV1.4 (AAO83647), hNaV1.7 (NP002968), and hNaV1.8 (Q9Y5Y9.2). The neonatal splice variant of hNaV1.5 (nhNaV1.5) was used as described by Schroeter et al.[45]. Recombinant DNAs for all NaV subgroups were engineered using PCR-based methods and verified by DNA sequencing. For the functional evaluation of BKCa channels (KCa1.1), we used human KCNMA1 (Acc. no. U11058).
Cells were transfected with the channel-coding plasmids using ROTI®Fect (Carl Roth, Karlsruhe, Germany). Visualization of transfected cells was achieved by co-expressing green fluorescent protein or in the case of BKCa channels, CD8 + with subsequent use of anti-CD8 coated microbeads. Neuro-2A cells were utilized for the expression of hNaV1.8 channels; all other constructs were expressed in HEK293T cells. Ionic currents were recorded 1–2 days after transfection.
Currents of BKCa channels were measured in inside-out patches after expression in HEK293T cells, using an EPC10 amplifier (HEKA Elektronik) and PACHMASTER NEXT acquisition software (Multi-Channel Systems GmbH, MCS, Reutlingen, Germany). The holding voltage was -90 mV, and currents were recorded for depolarization steps up to 80 mV. Pipettes with resistances of 1.8–2.5 MΩ were used. The extracellular (pipette) solution contained (in mM): 138 NaCl, 4 KCl, 2 CaCl2, 2 MgCl2, and 10 HEPES, pH 7.4 (NaOH); the intracellular (bath) solution with about 1 µM free Ca^2+ contained: 135 KCl, 8.63 CaCl2, 2 MgCl2, 10 EGTA, and 10 HEPES, pH 7.4 (KOH).
All recordings were obtained at room temperature (20–23 °C). Metal protoporphyrins, diluted from stock solutions in DMSO, were applied by adding 1/3 of the final bath volume and mixing. Transmission and fluorescence light sources were turned off during data acquisition.

human NaV1.5 (hNaV1.5) [4] = biological target: T1, human NaV1.5 (hNaV1.5); details: cited from earlier work
[5] = biological target: T2, human BKCa channel (KCa1.1, KCNMA1); details: applied to the intracellular side; cited from earlier work
SW-48 cells = assay: wound-healing assay, SW-48; type: cell-based, human
Experimental: (§1) Human embryonic kidney 293 T cells (HEK293T, from CAMR; Porton Down, Salisbury, UK) were cultured in Dulbecco’s Modified Eagle’s Medium (DMEM) with Nutrient Mixture F-12 (Gibco). Mouse neuroblastoma cells (Neuro-2A, German Collection of Microorganisms and Cell Cultures, DSMZ, Braunschweig, Germany) were cultured in DMEM. The breast cancer cell lines MDA-MB-231 (DSMZ) and T-47D (American Type Culture Collection, ATCC) were cultured in RPMI 1640 medium (Sigma, R7388), while the colorectal cancer cell lines SW-480 (DSMZ) and SW-48 (ATCC) were maintained in DMEM. Media were supplemented with 10% FBS, and the cells were incubated at 37 °C in a humidified atmosphere containing 5% or 10% (Neuro-2A) CO2.
(§2) Cells (50,000 to 70,000 per well) were seeded in a 48-well plate (Greiner Bio-One, Frickenhausen, Germany) and cultured for one day in their respective culture media supplemented with 10% FBS. Upon achieving approximately 90% confluency, a 200 µl sterile pipette tip was used to create a linear scratch (wound) in each well. Subsequently, the cells were rinsed with phosphate-buffered saline (PBS) and the medium was replaced with the same formulation containing only 2% FBS to minimize cell proliferation and to emphasize cell migration. […] Images were analyzed with ImageJ (NIH, Bethesda, MD, USA) using the “wound_healing_size_tool_updated” plugin[46] to quantify wound areas.

SW-480 cells = assay: wound-healing assay, SW-480; type: cell-based, human
Experimental: as §1, §2

[6] = test system: xenografted NaV1.5-expressing human breast cancer cells; details: mouse xenograft model; cited from earlier work

T1 sequence (Q14524 whole entry): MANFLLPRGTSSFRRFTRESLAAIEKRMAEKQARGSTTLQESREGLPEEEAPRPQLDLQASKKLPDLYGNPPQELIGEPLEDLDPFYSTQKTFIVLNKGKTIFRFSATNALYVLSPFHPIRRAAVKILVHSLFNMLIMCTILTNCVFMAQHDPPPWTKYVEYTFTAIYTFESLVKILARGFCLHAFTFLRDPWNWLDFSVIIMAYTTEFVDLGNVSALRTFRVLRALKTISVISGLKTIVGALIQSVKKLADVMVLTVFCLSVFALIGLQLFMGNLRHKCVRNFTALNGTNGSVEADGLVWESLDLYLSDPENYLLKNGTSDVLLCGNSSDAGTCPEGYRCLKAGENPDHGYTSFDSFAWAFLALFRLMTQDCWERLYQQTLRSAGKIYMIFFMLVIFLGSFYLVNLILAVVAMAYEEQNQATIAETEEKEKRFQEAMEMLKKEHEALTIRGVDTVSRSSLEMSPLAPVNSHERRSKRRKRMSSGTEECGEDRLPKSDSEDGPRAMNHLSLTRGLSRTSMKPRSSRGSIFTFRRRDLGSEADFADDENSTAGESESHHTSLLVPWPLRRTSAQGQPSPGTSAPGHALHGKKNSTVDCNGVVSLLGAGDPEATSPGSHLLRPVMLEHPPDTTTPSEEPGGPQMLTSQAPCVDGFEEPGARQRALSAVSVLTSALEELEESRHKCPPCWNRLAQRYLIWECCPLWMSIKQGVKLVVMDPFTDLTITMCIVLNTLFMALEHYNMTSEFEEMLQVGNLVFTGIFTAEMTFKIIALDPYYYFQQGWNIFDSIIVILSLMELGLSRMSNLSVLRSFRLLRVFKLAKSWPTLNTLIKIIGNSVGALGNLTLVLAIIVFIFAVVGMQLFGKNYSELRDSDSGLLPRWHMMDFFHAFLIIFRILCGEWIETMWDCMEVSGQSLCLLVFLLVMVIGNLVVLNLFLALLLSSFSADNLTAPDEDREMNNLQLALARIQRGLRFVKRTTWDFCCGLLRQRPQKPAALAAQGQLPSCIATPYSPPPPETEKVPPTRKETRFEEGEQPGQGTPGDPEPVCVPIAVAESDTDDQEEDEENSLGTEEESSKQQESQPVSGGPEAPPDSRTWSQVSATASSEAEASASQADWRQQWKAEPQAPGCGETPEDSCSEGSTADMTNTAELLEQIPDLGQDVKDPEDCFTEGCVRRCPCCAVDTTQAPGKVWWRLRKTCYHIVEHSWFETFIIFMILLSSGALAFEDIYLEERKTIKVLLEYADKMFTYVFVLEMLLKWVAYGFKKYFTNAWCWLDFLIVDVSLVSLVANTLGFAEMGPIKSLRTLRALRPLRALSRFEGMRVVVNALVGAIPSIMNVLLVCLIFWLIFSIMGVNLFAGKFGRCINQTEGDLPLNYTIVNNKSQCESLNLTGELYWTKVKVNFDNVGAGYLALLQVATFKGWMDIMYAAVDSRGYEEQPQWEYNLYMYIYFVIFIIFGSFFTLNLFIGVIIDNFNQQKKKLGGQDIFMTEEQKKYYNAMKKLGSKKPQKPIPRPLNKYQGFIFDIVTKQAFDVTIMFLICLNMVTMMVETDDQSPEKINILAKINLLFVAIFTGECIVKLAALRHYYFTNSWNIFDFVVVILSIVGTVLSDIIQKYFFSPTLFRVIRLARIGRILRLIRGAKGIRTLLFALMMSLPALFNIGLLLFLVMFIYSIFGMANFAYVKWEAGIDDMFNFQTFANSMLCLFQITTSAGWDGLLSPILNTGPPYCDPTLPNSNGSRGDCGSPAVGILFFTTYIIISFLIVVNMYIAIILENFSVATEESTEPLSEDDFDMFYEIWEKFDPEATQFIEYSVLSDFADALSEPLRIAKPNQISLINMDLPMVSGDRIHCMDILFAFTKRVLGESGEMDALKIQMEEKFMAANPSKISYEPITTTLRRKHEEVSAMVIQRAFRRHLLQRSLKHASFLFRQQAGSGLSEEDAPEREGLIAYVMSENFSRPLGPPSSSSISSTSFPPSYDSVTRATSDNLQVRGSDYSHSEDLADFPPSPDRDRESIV
T2 sequence (Q12791 1-1178 isoform Q12791-5): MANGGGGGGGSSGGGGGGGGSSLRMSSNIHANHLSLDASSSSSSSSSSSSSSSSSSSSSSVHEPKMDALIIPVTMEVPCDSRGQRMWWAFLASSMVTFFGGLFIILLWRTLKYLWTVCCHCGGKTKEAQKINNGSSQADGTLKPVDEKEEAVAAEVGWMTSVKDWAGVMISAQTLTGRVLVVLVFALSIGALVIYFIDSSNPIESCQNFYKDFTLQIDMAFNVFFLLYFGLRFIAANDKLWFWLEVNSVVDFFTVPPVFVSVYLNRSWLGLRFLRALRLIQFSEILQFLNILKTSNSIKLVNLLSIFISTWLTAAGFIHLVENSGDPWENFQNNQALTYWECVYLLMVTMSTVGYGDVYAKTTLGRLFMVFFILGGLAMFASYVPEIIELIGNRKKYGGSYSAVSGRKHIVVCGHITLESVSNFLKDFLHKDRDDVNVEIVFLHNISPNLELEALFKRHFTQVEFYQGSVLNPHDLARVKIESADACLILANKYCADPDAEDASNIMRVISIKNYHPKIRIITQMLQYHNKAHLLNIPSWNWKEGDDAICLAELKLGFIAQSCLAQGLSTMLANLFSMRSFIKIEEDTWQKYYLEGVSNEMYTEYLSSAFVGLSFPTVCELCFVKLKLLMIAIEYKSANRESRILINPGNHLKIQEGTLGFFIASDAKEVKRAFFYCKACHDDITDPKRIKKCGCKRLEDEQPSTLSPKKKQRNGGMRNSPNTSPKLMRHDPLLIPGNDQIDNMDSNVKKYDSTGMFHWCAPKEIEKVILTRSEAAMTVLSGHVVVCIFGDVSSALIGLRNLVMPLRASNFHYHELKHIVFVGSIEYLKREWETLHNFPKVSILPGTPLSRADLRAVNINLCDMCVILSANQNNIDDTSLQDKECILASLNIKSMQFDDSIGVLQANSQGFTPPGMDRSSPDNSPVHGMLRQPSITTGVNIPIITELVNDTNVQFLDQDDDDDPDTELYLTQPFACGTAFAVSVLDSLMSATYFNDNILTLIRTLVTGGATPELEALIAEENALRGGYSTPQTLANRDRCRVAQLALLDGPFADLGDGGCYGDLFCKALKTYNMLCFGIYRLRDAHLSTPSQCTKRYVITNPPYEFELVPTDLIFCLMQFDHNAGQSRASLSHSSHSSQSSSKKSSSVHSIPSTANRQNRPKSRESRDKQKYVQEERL
Chain of endogenous NaV-channel current in MDA-MB-231 cells (Q14524 711-950): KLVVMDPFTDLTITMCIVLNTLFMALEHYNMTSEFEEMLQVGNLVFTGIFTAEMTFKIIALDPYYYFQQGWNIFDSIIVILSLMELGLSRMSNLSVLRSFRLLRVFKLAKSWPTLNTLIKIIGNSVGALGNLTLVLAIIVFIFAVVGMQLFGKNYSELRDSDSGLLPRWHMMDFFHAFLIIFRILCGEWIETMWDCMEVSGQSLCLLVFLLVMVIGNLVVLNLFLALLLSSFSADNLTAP

Compound: NC1=N[C@H](O)[C@H]2[C@H]3O[C@]4(O)O[C@@H]([C@@H](O)[C@@]2(N1)[C@@H]4O)[C@]3(O)CO [TTX, tetrodotoxin, reference compound]
- remaining endogenous NaV-channel current [1]: 3.5 ± 0.5%
- gap closure in wound-healing assay (MDA-MB-231 cells): only a weak effect

Compound: C=CC1=C(C)C2=Cc3c(C=C)c(C)c4[n]3[Ga][n]3c(c(C)c(CCC(=O)O)c3=CC3=NC(=C4)C(C)=C3CCC(=O)O)=CC1=N2 [GaPpIX, gallium-PpIX]
- remaining peak inward current (human NaV1.5 (hNaV1.5) [2]): about 10%
- IC50 (human NaV1.5 (hNaV1.5) [2]): 117 ± 8 nM
- effect on BKCa current [3]: did not block BKCa channels
- gap closure (cell migration) in wound-healing assay (MDA-MB-231 cells): diminished gap closure, albeit less potently than MgPpIX

Compound: C=CC1=C(C)c2cc3[n-]c(cc4[n-]c(cc5nc(cc1n2)C(C)=C5C=C)c(C)c4CCC(=O)O)c(CCC(=O)O)c3C.[Fe+2] [heme, reference compound]
- impact on hNaV1.5 channels (human NaV1.5 (hNaV1.5) [4]): no impact

Compound: Fe^3+-protoporphyrin IX [hemin]
- effect on BKCa channel [5]: effectively inhibited
- remaining peak inward current (human NaV1.5 (hNaV1.5) [2]): ~ 20%
- reestablishment of inhibition, times slower than MgPpIX (human NaV1.5 (hNaV1.5) [2]; hNaV1.5, after prepulse-induced reversal): about 8 times
- IC50 (human NaV1.5 (hNaV1.5) [2]): 231 ± 18 nM
- IC50 (human NaV1.5 (hNaV1.5) [4]; read-out: apparent half-inhibitory constant (IC50) for hNaV1.5-mediated Na+ current, extracellularly applied): ~100 nM
- gap closure (cell migration) in wound-healing assay (MDA-MB-231 cells): diminished gap closure, albeit less potently than MgPpIX

Compound: C=CC1=C(C)c2cc3[n-]c(cc4[n-]c(cc5nc(cc1n2)C(C)=C5C=C)c(C)c4CCC(=O)[O-])c(CCC(=O)[O-])c3C.[H+].[H+].[Mn+2] [MnPpIX, manganese-PpIX]
- effect on hNaV1.5 current (human NaV1.5 (hNaV1.5) [2]): slightly less potent than hemin
- IC50 (human NaV1.5 (hNaV1.5) [2]): 672 ± 18 nM

Compound: C=CC1=C(C)c2cc3[nH]c(cc4nc(cc5[nH]c(cc1n2)c(C)c5CCC(=O)O)C(CCC(=O)O)=C4C)c(C)c3C=C [PpIX, Protoporphyrin IX, reference compound]
- cell migration in wound-healing assay (SW-48 cells): neither SnPpIX nor PpIX had any impact
- cell migration in wound-healing assay (SW-480 cells): neither SnPpIX nor PpIX had any impact
- gap closure (cell migration) in wound-healing assay (MDA-MB-231 cells): failed to influence gap closure

Compound: C=Cc1c(C)c2cc3nc(c4c5[n-]c(cc6nc(cc1[n-]2)C(C)=C6CC)c(C)c5C(=O)[C@@H]4C(=O)OC)[C@@H](CCC(=O)OC/C=C(\C)CCC[C@H](C)CCC[C@H](C)CCCC(C)C)[C@@H]3C.[Mg+2] [Chlorophyll-A, reference compound]
- effect on hNaV1.5 current (human NaV1.5 (hNaV1.5) [2]): no detectable effect

Compound: C=CC1=C(C)c2cc3[n-]c(cc4[n-]c(cc5nc(cc1n2)C(C)=C5C=C)c(C)c4CCC(=O)[O-])c(CCC(=O)[O-])c3C.[H+].[H+].[Ni+2] [NiPpIX, nickel-PpIX]
- effect on hNaV1.5 current (human NaV1.5 (hNaV1.5) [2]): failed to affect the current
- effect on hNaV1.5 current (human NaV1.5 (hNaV1.5) [2]; listed as Ni(II)PpIX): completely ineffective
- effect on BKCa current [3]: did not block BKCa channels
- gap closure (cell migration) in wound-healing assay (MDA-MB-231 cells): failed to influence gap closure

Compound: C=CC1=C(C)c2cc3[n-]c(cc4[n-]c(cc5nc(cc1n2)C(C)=C5C=C)c(C)c4CCC(=O)O)c(CCC(=O)O)c3C.[Cu+2] [CuPpIX, copper-PpIX]
- effect on hNaV1.5 current (human NaV1.5 (hNaV1.5) [2]): failed to affect the current
- effect on hNaV1.5 current (human NaV1.5 (hNaV1.5) [2]; listed as Cu(II)PpIX): completely ineffective

Compound: COc1ccccc1OCC(O)CN1CCN(CC(=O)Nc2c(C)cccc2C)CC1 (stereo not drawn) [ranolazine]
- lung colonization by the cancer cells [6]: reduced lung colonization by the cancer cells
- tolerability [6]: well-tolerated

Compound: tin-PpIX [SnPpIX]
- cell migration in wound-healing assay (SW-48 cells): neither SnPpIX nor PpIX had any impact
- cell migration in wound-healing assay (SW-480 cells): neither SnPpIX nor PpIX had any impact
- effect on hNaV1.5 current (human NaV1.5 (hNaV1.5) [2]): failed to affect the current
- effect on hNaV1.5 current (human NaV1.5 (hNaV1.5) [2]; listed as Sn(IV)PpIX): completely ineffective
- gap closure (cell migration) in wound-healing assay (MDA-MB-231 cells): failed to influence gap closure

Compound: C=CC1=C(C)c2cc3[n-]c(cc4nc(cc5[n-]c(cc1n2)c(C)c5C=C)C(C)=C4CCC(=O)O)c(CCC(=O)O)c3C.[Zn+2] [ZnPpIX, zinc-PpIX]
- remaining peak inward current (human NaV1.5 (hNaV1.5) [2]): about 10%
- IC50 (human NaV1.5 (hNaV1.5) [2]): 106 ± 11 nM
- effect on BKCa current [3]: minor effect
- gap closure (cell migration) in wound-healing assay (MDA-MB-231 cells): diminished gap closure, albeit less potently than MgPpIX

Source: paper PMC12855270, “Exceptionally selective voltage-sensor trapping of NaV1.5 channels by Mg-protoporphyrin impairs cancer cell migration” (Scientific Reports, 2026)
